Source: PubChem BioAssay (NCI)
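96-well plates; 48 h exposure; 5 concentrations. Endpoints by linear interpolation between flanking doses. Not reached: highest tested concentration assigned. Definition used: TGI = concentration required for complete inhibition of growth.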 Where a SMILES comes first, the peptide text is derived from it. The star is where a group is joined. OSu = O=C1CCC(=O)N1O*

Legend:
Test in all cases: NCI-60 cell line screen, 48 h
CAKI-1 renal = tested on: CAKI-1 renal
HOP-62 NSCLC = tested on: HOP-62 NSCLC
IGROV1 ovarian = tested on: IGROV1 ovarian
KM12 colon = tested on: KM12 colon
MALME-3M melanoma = tested on: MALME-3M melanoma
MDA-MB-435 = tested on: MDA-MB-435
NCI-H23 lung = tested on: NCI-H23 lung
RXF 393 renal = tested on: RXF 393 renal
SK-MEL-5 melanoma = tested on: SK-MEL-5 melanoma
U251 CNS = tested on: U251 CNS

| Structure (SMILES) | TGI (CAKI-1 renal) [µM] | TGI (HOP-62 NSCLC) [µM] | TGI (IGROV1 ovarian) [µM] | TGI (KM12 colon) [µM] | TGI (MALME-3M melanoma) [µM] | TGI (MDA-MB-435) [µM] | TGI (NCI-H23 lung) [µM] | TGI (RXF 393 renal) [µM] | TGI (SK-MEL-5 melanoma) [µM] | TGI (U251 CNS) [µM] |
| --- | --- | --- | --- | --- | --- | --- | --- | --- | --- | --- |
| COc1cc(S(=O)(=O)Nc2ccc(-c3csc(N4C(=O)C(Cl)C4c4cccs4)n3)cc2)ccc1Cl (stereo unspecified) | > 100 | > 100 | > 100 | > 100 | > 100 | > 100 | > 100 | 86.4 | > 100 | – |
| C/C(O)=C(\C=NC(=S)c1ccncc1)C(=O)Nc1ccccc1C | > 100 | > 100 | > 100 | > 100 | – | > 100 | > 100 | > 100 | > 100 | > 100 |
| OC12CCC3(O)c4ccccc4C3C1c1ccccc12 (stereo unspecified) | – | > 100 | – | > 100 | > 100 | – | > 100 | > 100 | > 100 | > 100 |
| COC(=O)[C@H](Cc1c[nH]c2ccccc12)NC(=O)c1ccccc1I | 50.6 | > 100 | > 100 | > 100 | 35.8 | 84.5 | – | 39.8 | 29.6 | > 100 |
| CCC(=O)Nc1ccc(NCC(=O)Nc2ccc(OC)cc2)cc1 | > 100 | 11.6 | 78 | > 100 | 49.5 | > 100 | 41.8 | 35.2 | 32.7 | – |
| CC(=O)n1nc(-c2ccc3ccccc3c2)nc1C | > 100 | > 100 | > 100 | > 100 | > 100 | > 100 | – | > 100 | > 100 | – |
| C=C(C)C(=O)OC1C[C@H](COC(C)=O)C2CC=C(CO)C2C2OC(=O)C(=C)[C@H]12 (stereo partly specified) | > 100 | > 100 | > 100 | > 100 | 44.3 | > 100 | > 100 | – | > 100 | > 100 |
| COc1cc(OC)c(OC)cc1/C=C/c1cc[n+](C)c2ccccc12 | > 100 | > 100 | > 100 | 75 | > 100 | – | 97.4 | > 100 | 26.4 | > 100 |
| C=CCCC(=O)C(=[N+]=[N-])C(=O)CCC(=O)c1ccccc1 | – | > 10 | > 10 | – | > 10 | > 10 | > 10 | > 10 | > 10 | > 10 |
| COc1ccc(CCN2C(=O)CC34C=CC(CC3C2=O)O4)cc1OC (stereo unspecified) | > 100 | > 100 | > 100 | > 100 | – | > 100 | > 100 | – | > 100 | > 100 |
| O=C1C(Cl)=C(NCCF)C(=O)c2ncccc21 | – | 4.39 | 3.43 | 3.38 | 2.98 | 0.408 | 3.51 | 3.24 | 2.56 | 2.8 |
| COc1ccc(/C(Cl)=C(\C=O)c2ccc(Cl)cc2)cc1OC | 49.2 | 42.3 | 30.1 | – | > 100 | – | 8.36 | 20.7 | > 100 | 14.7 |
| CCOc1cc(-c2nc3cc(F)ccc3s2)ccc1O | 32.2 | – | 26 | 36 | 29.8 | 33.8 | 33.8 | 35.4 | 32.2 | 41.3 |
| COc1ccc2oc(C(=O)N3CC(CCl)c4ccc(N)cc43)cc2c1 (stereo unspecified) | 0.648 | > 100 | 0.782 | 1.45 | – | 1.24 | 1.1 | 0.532 | – | 15.2 |
| CC12CCC(CC1(Cl)Cl)C2 (stereo unspecified) | > 100 | > 100 | > 100 | > 100 | > 100 | > 100 | > 100 | – | > 100 | > 100 |
| NCCNC(=O)CN(CC(=O)O)C1CCCCC1N(CC(=O)O)CC(=O)O (stereo unspecified) | > 100 | > 100 | > 100 | > 100 | > 100 | > 100 | > 100 | – | > 100 | > 100 |
| Cc1ccc(SCC(OCn2cnc3c(Cl)nc(N)nc32)[C@H](C)F)cc1 (stereo partly specified) | > 100 | > 100 | > 100 | > 100 | > 100 | > 100 | > 100 | – | 47.6 | > 100 |
| CC(=O)O[C@H]1C(=O)[C@@]2(C)[C@H]([C@H](OC(=O)c3ccccc3)[C@]3(O)C[C@H](OC(=O)[C@H](O)[C@@H](NC(=O)c4ccc(N(C)C)cc4)c4ccccc4)C(C)=C1C3(C)C)[C@]1(OC(C)=O)CO[C@@H]1C[C@@H]2O | > 50 | > 50 | > 50 | > 50 | – | – | > 50 | 0.226 | > 22.1 | > 50 |
| Cc1ccc(S(=O)(=O)NC(=O)NC(CCC(N)=O)C(=O)O)cc1 (stereo unspecified) | – | > 100 | > 100 | > 100 | > 100 | – | > 100 | > 100 | > 100 | > 100 |
| C1=NCCOCCN=Cc2ccc(cc2)OCc2cccc(n2)COc2ccc1cc2 | – | > 100 | > 100 | > 100 | > 100 | > 100 | > 100 | > 100 | – | > 100 |
| NCCCCC(NC(=O)C(N)Cc1ccc(O)cc1)C(=O)NC(Cc1ccc(O)cc1)C(=O)NC(CCCCN)C(=O)ON1C(=O)CCC1=O (stereo unspecified) (H-YKYK-OSu; configuration not given here) | – | > 100 | > 100 | > 100 | > 100 | – | > 100 | > 100 | > 100 | > 100 |
| CC(=O)c1c(O)n(-c2ccc(C)cc2)c(=O)c2c(N)n[nH]c12 | > 100 | – | > 100 | > 100 | > 100 | > 100 | > 100 | > 100 | > 100 | > 100 |
| O=c1[nH]nc(-c2ccc(F)cc2)cc1-c1ccccc1 | > 100 | – | > 100 | > 100 | > 100 | > 100 | > 100 | > 100 | > 100 | > 100 |
